Measurements from publication PMC11901902, “Design, Synthesis, and Cytotoxicity Evaluation of Novel Indolin-2-One Based Molecules on Hepatocellular Carcinoma HepG2 Cells as Protein Kinase Inhibitors” (Molecules, 2025).

Assays:
MCF-7 cells = assay: MTT cytotoxicity assay on MCF-7 cells; assay type: cell-based; details: Homo sapiens, MCF7; for viability at 1.25 µM: MCF-7, 1.25 µM; for viability at 1.25 µM / viability at 2.5 µM / viability at 5 µM / viability at 10 µM / viability at 20 µM / viability at 40 µM / viability at 80 µM / viability at 160 µM: Table S2; for viability at 2.5 µM: MCF-7, 2.5 µM; for viability at 5 µM: MCF-7, 5 µM; for viability at 10 µM: MCF-7, 10 µM; for viability at 20 µM: MCF-7, 20 µM; for viability at 40 µM: MCF-7, 40 µM; for viability at 80 µM: MCF-7, 80 µM; for viability at 160 µM: MCF-7, 160 µM; for IC50: MTT, 24 h treatment, mean of three experiments ± SEM, read-out: IC50 (µM) MCF-7
Protocol: (§1) Cytotoxic activity of the synthesized compounds was evaluated against HepG-2 and MCF-7 cancer cell lines using the MTT assay. The tested cell lines were obtained from the American Type Culture Collection (ATCC, […], USA) through the Tissue Culture Unit, The Egyptian Organization for Biological Products and Vaccines (Vacsera, Giza, Egypt). Indirubin, chemicals, and solvents were purchased from Sigma-Aldrich (St. Louis, MO, USA). The cells were grown on RPMI-1640 medium supplemented with 10% inactivated fetal calf serum and 50 µg/mL gentamycin. The cells were maintained at 37 °C in a humidified atmosphere with 5% CO2 and were sub-cultured two to three times per week. For antitumor assays, the tumor cell lines were suspended in the medium at concentration 5 × 10^4 cell/well in Corning® 96-well tissue culture plates (Corning, Corning, NY, USA), then incubated for 24 h. The tested molecules were then added to 96-well plates (six replicates) to achieve six concentrations for each compound. Six vehicle controls with media or 0.5% DMSO were run for each 96-well plate as a control. After incubating for 24 h, the numbers of viable cells were determined by the MTT test. Briefly, the media was removed from the 96 well plate and replaced with 100 µL of fresh culture RPMI 1640 medium without phenol red then 10 µL of the 12 mM MTT stock solution (5 mg of MTT in 1 mL of PBS) to each well including the untreated controls. The 96-well plates were then incubated at 37 °C and 5% CO2 for 4 h. An 85 µL aliquot of the media was removed from the wells, and 50 µL of DMSO was added to each well, mixed thoroughly with the pipette, and incubated at 37 °C for 10 min. Then, the optical density was measured at 590 nm with the microplate reader (SunRise, TECAN, Inc., Morrisville, NC, USA) to determine the number of viable cells, and the percentage of viability was calculated as […], where ODt is the mean optical density of wells treated with the tested sample and ODc is the mean optical density of untreated cells. The relation between surviving cells and drug concentration was plotted to obtain the survival curve of each tumor cell line after treatment with the specified compound. […] Each concentration was repeated four times.

HepG-2 cells = assay: MTT cytotoxicity assay on HepG-2 cells; assay type: cell-based, human; details: Homo sapiens, HepG2; for viability at 1.25 µM: HepG-2, 1.25 µM; for viability at 1.25 µM / viability at 2.5 µM / viability at 5 µM / viability at 10 µM / viability at 20 µM / viability at 40 µM / viability at 80 µM / viability at 160 µM: Table S1; for viability at 2.5 µM: HepG-2, 2.5 µM; for viability at 5 µM: HepG-2, 5 µM; for viability at 10 µM: HepG-2, 10 µM; for viability at 20 µM: HepG-2, 20 µM; for viability at 40 µM: HepG-2, 40 µM; for viability at 80 µM: HepG-2, 80 µM; for viability at 160 µM: HepG-2, 160 µM; for IC50: MTT, 24 h treatment, mean of three experiments ± SEM
Protocol: as §1

SMILES | viability at 1.25 µM (MCF-7 cells) [%] | viability at 2.5 µM (MCF-7 cells) [%] | viability at 5 µM (MCF-7 cells) [%] | viability at 10 µM (MCF-7 cells) [%] | viability at 20 µM (MCF-7 cells) [%] | viability at 40 µM (MCF-7 cells) [%] | viability at 80 µM (MCF-7 cells) [%] | viability at 160 µM (MCF-7 cells) [%] | IC50 (MCF-7 cells) [µM] | viability at 1.25 µM (HepG-2 cells) [%] | viability at 2.5 µM (HepG-2 cells) [%] | viability at 5 µM (HepG-2 cells) [%] | viability at 10 µM (HepG-2 cells) [%] | viability at 20 µM (HepG-2 cells) [%] | viability at 40 µM (HepG-2 cells) [%] | viability at 80 µM (HepG-2 cells) [%] | viability at 160 µM (HepG-2 cells) [%] | IC50 (HepG-2 cells) [µM]
COc1ccc2c(c1)C(=Nc1ccc(-c3nc4ccccc4c(=O)[nH]3)cc1)C(=O)N2 [Compound 24, 2-[4-(5-Methoxy-2-oxo-1,2-dihydro-indol-3-ylideneamino)-phenyl]-3H-quinazolin-4-one] | 104 ± 8.4 | 97.9 ± 7.7 | 90.8 ± 7 | 80 ± 6.9 | 61.3 ± 4.7 | 29.6 ± 2.6 | 11.1 ± 1.4 | 5.92 ± 0.5 | 18.5 ± 0.96 | 99.4 ± 8.2 | 95.5 ± 7.3 | 88.5 ± 7 | 79.6 ± 6.9 | 62.1 ± 5.7 | 49.5 ± 3.6 | 23.9 ± 2.4 | 10.4 ± 1.1 | 32.7 ± 2.93
O=C1Nc2ccc([N+](=O)[O-])cc2C1=Nc1ccc(-c2nc3ccccc3c(=O)[nH]2)cc1 [Compound 22, 2-[4-(5-Nitro-2-oxo-1,2-dihydro-indol-3-ylideneamino)-phenyl]-3H-quinazolin-4-one] | 109 ± 8 | 99.6 ± 7.4 | 95.3 ± 5.9 | 79.1 ± 5.1 | 63.6 ± 3.8 | 49.9 ± 3.3 | 23.5 ± 2.5 | 12.9 ± 1.3 | 14.9 ± 0.66 | 79.2 ± 7.2 | 73.3 ± 6.5 | 63 ± 5.9 | 48.5 ± 4.1 | 38 ± 3.8 | 26.1 ± 2.3 | 8.22 ± 0.5 | 4.17 ± 0.2 | 35.8 ± 2
O=C1Nc2ccccc2C1=Nc1ccc2nc[nH]c(=O)c2c1 [Compound 7, 6-(2-Oxo-1,2-dihydro-indol-3-ylideneamino)-3H-quinazolin-4-one] | 101 ± 7.2 | 93.7 ± 8.2 | 87.6 ± 6.1 | 78.2 ± 5.3 | 66.3 ± 4 | 53.1 ± 2 | 45.2 ± 1.4 | 36.8 ± 1.2 | 21.9 ± 1.83 | 83.4 ± 6.9 | 70.9 ± 6 | 61.9 ± 5.1 | 49.3 ± 2.2 | 35.9 ± 2.1 | 26.5 ± 1.9 | 9.4 ± 0.4 | 7.2 ± 0.2 | 10.8 ± 0.92
Cc1ccc2c(c1)C(=Nc1ccc(-c3nc4ccccc4c(=O)[nH]3)cc1)C(=O)N2 [Compound 23, 2-[4-(5-Methyl-2-oxo-1,2-dihydro-indol-3-ylideneamino)-phenyl]-3H-quinazolin-4-one] | 101 ± 7.9 | 91.5 ± 6.5 | 78.8 ± 6.4 | 65.8 ± 5.6 | 40.9 ± 4.6 | 26.9 ± 3 | 12 ± 1.3 | 12 ± 1.6 | 15.3 ± 0.23 | 81.5 ± 7.5 | 75.3 ± 6.8 | 64.8 ± 6 | 50.2 ± 4.4 | 39.1 ± 3.6 | 28.7 ± 2.6 | 9.5 ± 0.6 | 4.5 ± 0.3 | 38.4 ± 2.71
O=C1Nc2ccc([N+](=O)[O-])cc2C1=Nc1ccc2nc[nH]c(=O)c2c1 [Compound 11, 6-(5-Nitro-2-oxo-1,2-dihydro-indol-3-ylideneamino)-3H-quinazolin-4-one] | 116 ± 6.4 | 97.5 ± 7 | 90.1 ± 6.4 | 86 ± 5.5 | 63.9 ± 3.8 | 39.1 ± 2.9 | 25.6 ± 1.3 | 11.2 ± 0.4 | 72.4 ± 6.51 | 99.2 ± 6.9 | 91.3 ± 7.9 | 89.4 ± 6.4 | 79.5 ± 5.5 | 67.1 ± 3.8 | 54.6 ± 1.9 | 44.1 ± 1.3 | 37.6 ± 1.1 | 20.9 ± 1.54
O=C1Nc2ccc(F)cc2/C1=N/c1ccc2nc[nH]c(=O)c2c1 [Compound 8, 6-(5-Flouro-2-oxo-1,2-dihydro-indol-3-ylideneamino)-3H-quinazolin-4-one] | 104 ± 4.9 | 94.2 ± 4 | 87.9 ± 3.9 | 75.7 ± 3.2 | 57.1 ± 2.4 | 43.9 ± 2 | 29.7 ± 1.4 | 11.5 ± 0.7 | 52.8 ± 3.21 | 88 ± 7.6 | 71.2 ± 6.1 | 62.3 ± 4.3 | 48.2 ± 1.8 | 33.6 ± 0.13 | 17.5 | 15.1 ± 1.4 | 9.3 ± 1.1 | 7.54 ± 0.53
Cc1ccc2c(c1)C(=Nc1ccc3nc[nH]c(=O)c3c1)C(=O)N2 [Compound 12, 6-(5-Methyl-2-oxo-1,2-dihydro-indol-3-ylideneamino)-3H-quinazolin-4-one] | 104 ± 5.4 | 91.4 ± 4.1 | 80 ± 4.2 | 69.2 ± 2.7 | 58.5 ± 1.5 | 30.1 ± 1.2 | 21.5 ± 1.5 | 9.15 ± 1.2 | 46.2 ± 2.47 | 96.4 ± 6.9 | 84.9 ± 6.1 | 81.8 ± 5.4 | 69.1 ± 4.1 | 58.9 ± 2.2 | 49.7 ± 1.7 | 36.3 ± 0.5 | 33.9 ± 1.2 | 31.9 ± 2.12
